{"source": "patent US20090247579A1", "about": "“2-[3H-THIAZOL-2-YLIDINEMETHYL]PYRIDINES AND RELATED COMPOUNDS AND THEIR USE” (CANCER RESEARCH TECHNOLOGY LIMITED, priority 2006, published 2009)", "key": {"CACO2": {"tested_on": "CACO2", "assay": "Modified MTT assay, colon panel CACO2", "assay_type": "cell-based", "settings": "Homo sapiens, Caco-2, MMR proficient, p53 mut, read-out: MMR201 IC50", "procedure": "(§1) Relative drug sensitivities (Resistance Factor) and IC50 values were determined by a modified MTT assay (see, e.g., Mosmann, 1983; Plumb et al., 1989), as described below: • (1) Trypsinise a sub-confluent monolayer culture and collect cells in growth medium containing serum. Centrifuge the suspension (200 g, 5 minutes) to pellet cells, re-suspend in growth medium, and count cells. Dilute cells to a density of 5×10^3 cells/mL allowing 60 mL of cell suspension for 3 microtitre plates. Transfer cell suspension to a 10 cm petri dish, and with a multichannel pipette add 200 μL to each well of the central 10 columns of a flat bottomed 96-well plate (80 wells per plate) starting with column 2 and ending with column 11. Add 200 μL of growth medium to the 8 wells in columns 1 and 12. […] Pipette 6 mL of growth medium in to each of 7 universal containers (30 mL). Prepare 10 mL of the highest concentration of the drug and transfer 1.5 mL of this solution to the first universal container. Mix and then transfer 1.5 mL to the next universal container. Continue until the seventh universal container is reached. The concentrations should be chosen so that the highest concentration kills most of the cells and the lowest kills none of the cells."}, "[1]": {"tested_on": "HCT116 human colon tumour cell line grown as xenograft", "assay": "Xenograft study, HCT116 in nude mice", "assay_type": "in vivo", "settings": "single bolus day 0, MMR201 1 or 2 mg/kg i.v. (tolerated doses), cisplatin 6 mg/kg i.p. (maximum tolerated dose)", "procedure": "(§2) For xenograft experiments, tumour cells were injected into the flanks of athymic nude mice and allowed to establish until palpable tumour could be detected. Following single bolus injection of drug, tumour growth was monitored using calliper measurement of tumour size and calculation of tumour volume.\n(§3) Cells in exponential phase of growth were harvested with trypsin and re-suspended in phosphate buffered saline. About 10^7 cells in a total volume of 200 μL of PBS were injected subcutaneously in the right flank of CD1 nude mice. They were used for experiments after about 7 to 10 days by which time the mean tumour diameter was about 0.5 cm.\n(§4) Mice were weighed and tumour volumes measured. The mice were randomised in groups of 6 and treated either with the drug or with the solvent alone. The drug was dissolved in DMSO and diluted in sterile PBS just before injection to give a final DMSO concentration of 1%. The drugs solution was prepared such that the injection volume was 5 μL per gram body weight. […]\n(§5) Mice were then weighed daily and tumour volumes estimated from two measurements of the diameter taken at a 90° angle. The volume was determined by the formula: v=D^3/6×π, where v=volume and D is the mean diameter. Results (Mean and SEM) are expressed as the relative tumour volume, which is the tumour volume on any given day divided by the initial tumour volume calculated for each mouse."}, "[2]": {"tested_on": "A2780/cp70 human ovarian, cisplatin resistant, cell line grown as xenograft", "assay": "Xenograft study, A2780/cp70 in nude mice", "assay_type": "in vivo", "settings": "single bolus day 0, MMR201 1 mg/kg i.v. (tolerated dose), cisplatin 6 mg/kg i.p. (maximum tolerated dose)", "procedure": "as §2, §3, §4, §5"}, "LOVO (MSH2)": {"tested_on": "LOVO (MSH2)", "assay": "Modified MTT assay, colon panel LOVO", "assay_type": "cell-based", "settings": "Homo sapiens, MMR deficient, p53 wt, read-out: MMR201 IC50", "procedure": "as §1"}, "PARP cleavage": {"tested_on": "PARP cleavage", "assay": "Apoptosis as determined by PARP cleavage", "assay_type": "cell-based"}, "p53": {"tested_on": "p53", "assay": "Induction of p53 expression", "assay_type": "cell-based", "settings": "at doses that were shown to induce apoptosis"}}, "data": [{"smiles": "CC[n+]1c(/C=C2\\Sc3oc4ccccc4c3N2C)ccc2cc(C)ccc21.[I-]", "note": "[MMR201]", "values": [{"measurement": "IC50", "setting": "CACO2", "value": "474 ± 16", "unit": "nM"}, {"measurement": "Tumour growth (relative tumour volume) of HCT116 xenograft", "setting": "[1]", "value": "inhibits growth"}, {"measurement": "Tumour growth (relative tumour volume) of A2780/cp70 xenograft", "setting": "[2]", "value": "can inhibit growth"}, {"measurement": "IC50", "setting": "LOVO (MSH2)", "value": "431 ± 11.2", "unit": "nM"}, {"measurement": "Apoptosis in MLH1 negative cells", "setting": "PARP cleavage; MLH1 negative cells, PARP cleavage, 24 hours", "value": "increased apoptosis at lower drug concentrations"}, {"measurement": "Apoptosis as determined by PARP cleavage", "setting": "PARP cleavage; incubation for 24 hours", "value": "induces apoptosis"}, {"measurement": "Induction of p53 expression", "setting": "p53", "value": "does not induce expression of p53"}]}]}
